These results are taken from patent US9752151B2, “Composition for treatment or metastasis suppression of cancers which includes p34 expression inhibitor or activity inhibitor as active ingredient” (THE ASAN FOUNDATION, priority 2013, dated 2017).

Data set [1] has as its system PTEN. Nature of the data set: PTEN ubiquitination (PTEN immunoprecipitation, ubiquitin Western blotting) in MDA-MB-231. It counts as cell-based, human. The settings on record: 1 μM, 24 hours. How it is done:
(§1) The p34 activity inhibitor, Compound 27, in a concentration of 1 μM was treated with human breast cancer cell lines MDA-MB-231 and colorectal cancer cell lines LS1034 for 24 hours, and immunoprecipitation was performed using a PTEN antibody. Thereafter, Western blotting was performed using an ubiquitin antibody. The result is illustrated in FIG. 62.

The subject of data set [2] is PTEN. Nature of the data set: PTEN ubiquitination (PTEN immunoprecipitation, ubiquitin Western blotting) in LS1034. The settings on record: 1 μM, 24 hours. It is filed as cell-based, human. How it is done: as §1
A general note: A western blot detects proteins with antibodies after separation by electrophoresis.

Data set [3] deals with T1, p34 protein and NEDD4-1 protein (Homo sapiens, UniProt Q9UHV2).
T1 construct: made in house; host or cells: E. coli BL-21 (DE3) (printed for GST-p34 in the earlier pull-down)
T1 sequence (Q9UHV2 1-236): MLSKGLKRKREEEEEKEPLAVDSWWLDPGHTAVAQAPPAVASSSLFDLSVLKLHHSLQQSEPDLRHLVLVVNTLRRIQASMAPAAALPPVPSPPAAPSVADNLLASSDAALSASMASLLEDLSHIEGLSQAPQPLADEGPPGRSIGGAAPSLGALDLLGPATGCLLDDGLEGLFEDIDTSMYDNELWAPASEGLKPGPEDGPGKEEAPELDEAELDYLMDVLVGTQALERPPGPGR
Kind of data set: GST-pull down of p34 and NEDD4-1 proteins binding. The settings on record: 1 mM or 3 mM, 30° C., 1 hour, purified proteins. How it is done:
Purified NEDD4-1 protein and p34 protein were treated with a reaction buffer (20 mM Tris-HCl pH7.5, 120 mM NaCl) and the p34 activity inhibitor Compound 27 in a concentration of 1 mM or 3 mM, and reacted at 30° C. for 1 hour. Thereafter, the reaction was stopped using GST-pull down buffer (20 mM Tris-HCl pH8.0, 500 mM NaCl, 1% Triton X-100, 0.02% BSA, 5 mM mercaptoethanol), and then pulled down with glutathione-sepharose beads at 4° C. Western blotting was performed using anti-His and anti-GST antibodies. The result is illustrated in FIG. 63.

The subject of data set [4] is MDA-MB-231. Nature of the data set: Trypan blue dye cell death, MDA-MB-231. It counts as cell-based, human. The settings on record: MDA-MB-231, per each concentration, 48 hours. As to the method:
(§2) Human breast cancer cell lines MDA-MB-231 were treated with the p34 activity inhibitor Compound 27 per each concentration for 48 hours, and then trypan blue dye and Western blotting were performed. The result is illustrated in FIG. 64.

Data set [5] has as its system PTEN protein, Akt, caspase3. Nature of the data set: Western blotting after p34 activity inhibitor, MDA-MB-231. It counts as cell-based, human. The following applies: MDA-MB-231, 48 hours. As to the method:
as §2

Data set [6] deals with PTEN. Kind of data set: PTEN lipid phosphatase activity, MDA-MB-231. It is filed as cell-based, human. The settings on record: MDA-MB-231, 48 hours, OD 650 nm. How it is done:
(§3) Also, human breast cancer cell lines MDA-MB-231 were treated with p34 activity inhibitor Compound 27 per each concentration for 48 hours, and cell sap was collected and immunoprecipitation was performed using a PTEN antibody. Thereafter, it was reacted with a reaction buffer solution (100 mM Tris-HCl pH8.0, 10 mM DTT) containing water-soluble diC8-phosphatidylinositol 3,4,5 tri-phosphate at 37° C. for 40 minutes, and only the supernatant was collected to be reacted with Biomol Green solution at room temperature for 30 minutes. Then, PTEN lipid phosphatase activity was measured at OD 650 nm. The result is illustrated in FIG. 65.

For data set [7], the system named is LS1034. Nature of the data set: Trypan blue dye cell death, LS1034. It counts as cell-based, human. The settings on record: LS1034, per each concentration, 48 hours. How it is done: as §2
(§4) The same experiments were performed using human colorectal cancer cell lines LS1034. The results are illustrated in FIGS. 66 and 67.

Data set [8] concerns PTEN protein, Akt, caspase3. Nature of the data set: Western blotting after p34 activity inhibitor, LS1034. It is filed as cell-based, human. The following applies: LS1034, 48 hours. How it is done:
as §2, §4

Data set [9] has as its system PTEN. Nature of the data set: PTEN lipid phosphatase activity, LS1034. It is filed as cell-based, human. The following applies: LS1034, 48 hours, OD 650 nm. How it is done: as §3, §4
Data set [10] relates to PTEN protein. Kind of data set: Western blotting after co-transfection of GFP-tagged p34 and NEDD4-1-siRNA/shRNA, 293 cells. It counts as cell-based. The settings on record: 293 cells co-transfected with GFP-tagged p34; decreased with GFP-tagged p34 alone. As to the method: (§5) The expression levels of each protein were analyzed using Western blotting. The result is illustrated in FIG. 23.

Data set [11] relates to PTEN protein. Kind of data set: Western blotting after co-transfection of GFP-tagged p34 and NEDD4-1-siRNA/shRNA, MEF cells. The following applies: MEF cells co-transfected with GFP-tagged p34; decreased with GFP-tagged p34 alone. It is filed as cell-based, mouse. How it is done:
as §5

In data set [12] the target is T2, GST-PTEN fusion protein (UniProt P60484 1-403).
T2 construct: Purified recombinant protein; also called purified recombinant GST-PTEN; not shown: GST tag
T2 sequence (P60484 whole entry, the tested form may be a part): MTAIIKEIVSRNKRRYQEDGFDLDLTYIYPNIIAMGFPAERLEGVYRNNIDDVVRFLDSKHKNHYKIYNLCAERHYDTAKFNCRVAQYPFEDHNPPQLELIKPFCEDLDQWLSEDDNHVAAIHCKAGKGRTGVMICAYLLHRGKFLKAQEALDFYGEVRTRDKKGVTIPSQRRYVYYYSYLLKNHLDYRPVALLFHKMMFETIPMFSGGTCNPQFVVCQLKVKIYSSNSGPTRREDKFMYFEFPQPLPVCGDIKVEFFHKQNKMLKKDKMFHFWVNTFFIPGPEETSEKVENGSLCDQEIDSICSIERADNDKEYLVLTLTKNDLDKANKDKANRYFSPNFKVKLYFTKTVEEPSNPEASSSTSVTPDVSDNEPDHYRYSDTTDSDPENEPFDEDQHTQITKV
Kind of data set: GST pull-down with purified recombinant GST-PTEN, Western blotting (FIG. 8).

Data set [13] has as its target T3, GST-tagged NEDD4-1 mutant lacking WW1 domain (GST-delWW1) (UniProt P46934-4 1-900, limits assumed).
T3 construct: also called NEDD4-1 protein lacking the WW1 domain; not shown: GST tag
T3 sequence (looked up): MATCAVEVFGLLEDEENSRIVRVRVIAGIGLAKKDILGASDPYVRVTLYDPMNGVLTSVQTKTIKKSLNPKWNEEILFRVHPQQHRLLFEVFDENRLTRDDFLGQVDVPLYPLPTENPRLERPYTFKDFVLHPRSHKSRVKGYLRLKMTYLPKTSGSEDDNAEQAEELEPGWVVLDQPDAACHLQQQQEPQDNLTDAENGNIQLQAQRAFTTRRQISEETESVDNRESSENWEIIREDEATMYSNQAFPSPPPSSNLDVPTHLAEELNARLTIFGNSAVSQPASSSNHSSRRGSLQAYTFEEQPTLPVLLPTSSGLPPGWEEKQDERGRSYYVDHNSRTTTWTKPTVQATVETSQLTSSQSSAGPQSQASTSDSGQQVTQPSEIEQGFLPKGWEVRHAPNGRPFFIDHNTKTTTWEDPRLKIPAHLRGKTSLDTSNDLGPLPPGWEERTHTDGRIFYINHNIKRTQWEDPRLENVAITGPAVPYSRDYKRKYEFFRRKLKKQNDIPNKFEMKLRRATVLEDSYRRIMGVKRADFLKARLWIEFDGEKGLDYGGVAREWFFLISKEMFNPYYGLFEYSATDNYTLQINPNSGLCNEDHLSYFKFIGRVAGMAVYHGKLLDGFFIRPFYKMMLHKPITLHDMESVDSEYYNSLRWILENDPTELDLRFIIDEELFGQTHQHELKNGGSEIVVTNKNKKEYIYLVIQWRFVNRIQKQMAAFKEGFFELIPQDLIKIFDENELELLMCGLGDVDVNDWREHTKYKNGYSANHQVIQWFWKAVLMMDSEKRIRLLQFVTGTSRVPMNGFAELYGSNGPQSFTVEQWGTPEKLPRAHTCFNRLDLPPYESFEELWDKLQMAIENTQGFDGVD
Nature of the data set: GST pull-down of GST-delWW1 with lysate of cells expressing His-p34 (FIG. 10). As to the method: (2) In order to verify the above result, plasmids containing GST-tagged wild-type NEDD4-1 mutants lacking WW1 domain (GST-delWW1) were prepared. The mutant proteins of NEDD4-1 were incubated with a lysing solution isolated from cells expressing His-p34, and then GST-pull down assay was performed. The result is illustrated in FIG. 10.

Data set [14] deals with T2, GST-PTEN fusion protein. Nature of the data set: GST pull-down of GST-PTEN with lysate of cells expressing Myc-NEDD4-1 and His-p34 (FIG. 11). As to the method:
In order to investigate whether p34 affects PTEN and NEDD4-1 binding, GST-PTEN fusion proteins were incubated with the lysing solution of cells expressing Myc-NEDD4-1 and His-p34, and then GST-pull down assay was performed. As a control group, GST proteins were used. The result is illustrated in FIG. 11.

As to `Cc1[nH]c2ccc(-c3nnc(OCC(=O)NC(C)c4nc5ccccc5[nH]4)o3)cc2c1C` (stereo not drawn) [Compound 27], the PTEN ubiquitination result in data set [1] and in data set [2] was “inhibiting PTEN ubiquitination” throughout. Moreover, in [3], the “p34 protein and NEDD4-1 protein binding” value is “inhibited the p34 protein and the NEDD4-1 protein binding in a dose dependent manner”. The cell death result in data set [4] and in data set [7] was “cell death was induced” in each case. The Akt dephosphorylation result in data set [5] and in data set [8] was “Akt dephosphorylation occurred” each time. Also, the PTEN protein result in data set [5] and in data set [8] was “reactivated” each time. The caspase3 activation entry in data set [5] and in data set [8] was “caspase3 was activated” each time. Besides, the “PTEN lipid phosphatase activity” value in data set [6] and in data set [9] was “increased PTEN lipid phosphatase activity” in each case.
On to “NEDD4-1-siRNA/shRNA: NEDD4-1-siRNA: 5′-TGGCGATTTGTAAACCGAA-3′ (SEQ ID NO 4) (listed as DNA, chemistry not given here)”, for which the “levels of PTEN protein” value in data set [10] and in [11] was “remained substantially unchanged” in each case.

B1: p34 protein (construct not stated) (other, UniProt Q9UHV2 1-236, looked up)
chain: MLSKGLKRKREEEEEKEPLAVDSWWLDPGHTAVAQAPPAVASSSLFDLSVLKLHHSLQQSEPDLRHLVLVVNTLRRIQASMAPAAALPPVPSPPAAPSVADNLLASSDAALSASMASLLEDLSHIEGLSQAPQPLADEGPPGRSIGGAAPSLGALDLLGPATGCLLDDGLEGLFEDIDTSMYDNELWAPASEGLKPGPEDGPGKEEAPELDEAELDYLMDVLVGTQALERPPGPGR
notes: also called purified p34 protein
For the molecule B1, the binding result in data set [12] was “no binding”.

B2: His-tagged p34 (other, UniProt Q9UHV2 1-236, looked up)
chain: MLSKGLKRKREEEEEKEPLAVDSWWLDPGHTAVAQAPPAVASSSLFDLSVLKLHHSLQQSEPDLRHLVLVVNTLRRIQASMAPAAALPPVPSPPAAPSVADNLLASSDAALSASMASLLEDLSHIEGLSQAPQPLADEGPPGRSIGGAAPSLGALDLLGPATGCLLDDGLEGLFEDIDTSMYDNELWAPASEGLKPGPEDGPGKEEAPELDEAELDYLMDVLVGTQALERPPGPGR
notes: Expressed in cells and used as lysate; also called His-p34; not shown: His tag
As for B2, the binding result in data set [13] and in data set [14] was “no binding” each time.
